| SMILES | melting point [°C] |
| --- | --- |
| Cc1nn(CCO)c(C)c1Sc1ccc(Cl)cc1 | 88.9 to 90.3 |
| CCOC(=O)c1cnc2nc(S(=O)(=O)Cl)nn2c1C | 65 to 69 |
| CC(C)=CCNc1cccc(-c2ccnc3c(C(=O)c4cccs4)cnn23)c1 | 116 to 118 |
| COc1cc(C)c(C(=O)c2c(OC)cncc2C(F)(F)F)c(OC)c1OC | 103 to 106 |
| CCC(CC)c1ccc(Cl)c2nc3n(c12)CCCCN3c1ccc(S(C)=O)cc1C (centres undefined) | 189 to 190 |
| O=[N+]([O-])c1ccc(Oc2ccc(C3(c4ccc(Oc5ccc([N+](=O)[O-])cc5)cc4)CCC(c4ccccc4)CC3)cc2)cc1 | 216 to 218 |
| CC(=O)c1cccc(-n2ccnc2)c1 | 69 to 71 |
| Cc1c(N2CCC(N(C)C)C(C)(C)C2)c(F)cc2c(=O)c(C(=O)O)cn(C3CC3)c12 (centres undefined) | 209 to 210 |
| CN(C)CCOc1ccc(CN2C(=O)C3(COc4cc5c(cc43)OCCO5)c3ccccc32)cc1 (centres undefined) | 77 to 79 |
| O=C(c1ccccc1CBr)c1cc(Cl)ccc1CBr | 152 to 153 |
| O=C(Nc1cccc2c1C(=O)c1c-2n[nH]c1-c1ccc(C(=O)NN2CCCCC2)s1)NN1CCOCC1 | 189 to 191 |
| COC(=O)c1ccc(N=Cc2ccc(OC)c(C34CC5CC(CC(C5)C3)C4)c2)cc1 | 180 to 182 |
| O=C(O)c1cc(NCc2ccccc2)c(-c2ccccc2)c([N+](=O)[O-])c1 | 188 to 189 |
| Cc1cc(OC23CC4CC(CC(C4)C2)C3)ccc1N | 143 to 145 |
| CNc1ccc(Oc2nc(OC)cc(OC)n2)c(C(=O)O)n1 | 172 to 174 |
| CCOC(=O)C1=CCCCC1S(=O)(=O)Nn1cccc1Cl (centres undefined) | 60 to 61 |
| O=C(Nc1ccnn1-c1c(Cl)cc(C(F)(F)F)c(Cl)c1Cl)C(F)(F)F | 140 to 145 |
| CNc1ccc([N+](=O)[O-])cc1C(F)(F)F | 99 to 101 |
| CC1(C(O)C(Cc2ccc(Cl)cc2)n2cncn2)COCOC1 (centres undefined) | 152 to 154 |
| COc1ccc2c(c1)CCC(c1ccccc1)=C2c1ccc(O)cc1 | 158 to 162 |
| CCOC(=O)C(Cc1c(Br)c(OC)c(OC)c(OC)c1OC)(C(=O)OCC)c1ccc(OCc2ccccc2)cc1 | 93 to 94 |
| COc1ccc2c(c1)c1c(n2CCC(=O)NN)CCN(C)C1 | 126 to 128 |
| Cc1cc2c(cc1F)c(C#N)c(-c1ccc(S(=O)(=O)N[C@H](C)C(F)(F)F)cn1)n2C1CCCC1 | 191 to 193 |
| CCCCCCCCCCCC(=O)NC(C)c1c[nH]c(CCCCCCCCCCC)n1 (centres undefined) | 56 to 59 |
| CCOC(=O)NC(C)COc1ccc(Oc2ccc(F)cc2)cc1 (centres undefined) | 55 to 56 |

| SMILES | melting point [°C] |
| --- | --- |
| Cc1c(OCCCOc2cc(C(C)(C)C)c(O)c(C(C)(C)C)c2C)cc(C(C)(C)C)c(O)c1C(C)(C)C | 120 |
| CC(C)N(C1CCCC1)S(=O)(=O)N[C@@H](Cc1ccc(NC(=O)c2c(Cl)cncc2Cl)cc1)C(=O)O | 157 |
| CCP(=O)(OC)C(O)C(CC1CCCCC1)NC(=O)[C@H](CC(C)C)NC(=O)CCc1ccccc1 (some centres undefined) | 170 to 175 |
| COC(=O)c1ccccc1OCc1ccc(COc2ccccc2C(=O)OC)cc1 | 115 to 120 |
| CCCCCCCCCCCCc1ccc2c(c1)C(=O)c1ccccc1C2=O | 99 to 105 |
| CC(=NO)c1nc(N)nc(N)c1-c1ccc(Cl)cc1 | 256 to 259 |
| Cc1ccc(C(=O)C2=C(O)C(=O)N(c3ccc(C)nn3)C2c2ccc(C(C)C)cc2)cc1 (centres undefined) | 279 |
| CC(C)(C)c1cc(-c2nc3ncccc3o2)cc(C(C)(C)C)c1 | 154 to 156 |
| CN1CCC(OC2c3ccccc3CCn3c2nc(-c2ccccc2)c3C=O)CC1 (centres undefined) | 70 |
| Cc1ccc(S(=O)(=O)N(C)c2cccc(-c3ccnc4c(C(=O)c5ccccc5)cnn34)c2)cc1 | 170 to 171 |
| Cc1ccc2cccc(OCc3c(Cl)ccc(S(=O)(=O)N(C)CCCCCC(=O)O)c3Cl)c2n1 | 98 to 102 |
| CC(Oc1ccc([N+](=O)[O-])cc1)c1c(F)ccc(F)c1F (centres undefined) | 120 |
| COc1ccc(CCNCC(O)COc2cccc3nn(Cc4ccccc4)cc23)cc1OC (centres undefined) | 101 to 102 |
| Cc1c(C(=O)Nc2ccc(N3CCC(NCCO)CC3)c(C#N)c2)cnn1-c1ccc(Cl)cc1 | 181 |
| O=C(CCCCCCNC(=O)C(=O)c1cn2c3c(cccc13)CCC2)NOC1CCCCO1 (centres undefined) | 140 to 142 |
| O=C1CCCC(CN2CC=C(c3ccccc3)CC2)C1 (centres undefined) | 56 to 59 |
| COc1c(N2CCC(n3cc(C)nn3)C2)c(F)c(N)c2c(=O)c(C(=O)O)cn(C3CC3)c12 (centres undefined) | 256 |
| CC(C)NC(=O)c1cc(-n2c(=O)cc(C(F)(F)F)n(C)c2=O)c(F)cc1Cl | 146 to 149 |
| CCOC(=O)C(NC(=O)OC(C)(C)C)c1csc(N)n1 (centres undefined) | 143 to 144 |
| CCOC(=O)C1=C(C)NC(c2ncc[nH]2)=NC1c1ccccc1Cl (centres undefined) | 121 to 125 |
| COc1ccc2c(c1)S(=O)(=O)C(C(=O)Nc1ccc(Cl)c(Cl)c1)C(=O)N2C (centres undefined) | 230 to 233 |
| CSc1cc(C(C)=O)ccc1OCCCN1CCC(c2noc3cc(F)ccc23)CC1 | 150 to 152 |
| CCCc1nnc2c(=O)n(C)c3ccc(Cl)cc3n12 | 265 to 266 |
| COC(=O)c1cc(Cl)c(NC(C)=O)cc1OC1CCOC1=O (centres undefined) | 118 to 119 |
